In paper PMC10739591, “mCherry on Top: A Positive Read-Out Cellular Platform for Screening DMD Exon Skipping Xenopeptide–PMO Conjugates” (Bioconjugate Chemistry, 2023):

Tested on: DMD exon 23
Assay: Splicing modulation in vivo (DMD exon 23 skipping, nested RT-PCR ex vivo)
Conditions: BALB/c mice, i.v., 375 µg PMO, 48 h after injection
Procedure: 6-week-old female BALB/c mice (BALB/cByJRj, Janvier, Le Genest-Saint-Isle, France) were housed in isolated ventilated cages under pathogen-free conditions with a 12 h light/dark interval. The mice were acclimated for 7 days prior to treatments. Water and food were provided ad libitum. For splice switching in the physiological DMD gene, PMO formulations were prepared 48 h before intravenous injection, as described above. The freeze-dried PMO formulations were reconstituted with HBG to obtain a concentration of 375 μg PMO per 150 μL. The mice were randomly divided into three groups (n = 6 for PMO(Ex23)-1395, and n = 5 for free 3′ primary amine-modified PMO(Ex23) and PMO(705)-1395). 150 μL of PMO solution was injected intravenously into a lateral tail vein. 48 h after injection, the mice were euthanized and the brain, spleen, quadriceps femoris muscle, kidneys, liver, lung, and heart were harvested. For stabilization of the mRNA, the organs were incubated in RNAlater solution (Thermo Fisher Scientific, Waltham) overnight at 4 °C and afterward stored at −20 °C. Each organ was manually homogenized using a mortar and pestle and liquid nitrogen. […]
The final PCR products were analyzed by agarose gel electrophoresis (2% agarose gel; 100 V; 2 h). Individual band intensities were quantified and put into relation to the band of full-length DMD-Ex20–24 with a size of 633 bp by using ImageJ software.

Question: “PMO(Ex23): PMO GGCCAAACCTCGGCTTACCTGAAAT with 3'-primary amine; targets donor splice site of DMD intron 23 (PMO, 3'-primary amine, chemistry not fully specified)” was tested. Which “DMD exon 23 skipping in skeletal muscle (quadriceps femoris)” value did it give?
Answer: predominant splice-switching activity in the skeletal muscle
